Test results reported in patent US7759345B2, “Antitumoral derivatives of ET-743” (priority 2001, dated 2010).
Where two headings read alike, the source gives them in different places.

Tests used:
HT-29 = assay: Inhibition of cell growth by counting cells, HT-29; assay type: cell-based, human; conditions: three days of incubation, read-out: IC50 (molar) HT-29
Procedure: (§1) 1°.—Inhibition of Cell Growth by Counting Cells.
(§2) This form of the assay employs 24 well multidishes of 16 mm diameter (Bergeron, 1984; Schroeder, 1981). The tumor cell lines employed are: P-388 (ATCC CCL 46), suspension culture of a lymphoid neoplasm from a DBA/2 mouse; A-549 (ATCC CCL 185), monolayer culture of a human lung carcinoma; HT-29 (ATCC HTB-38), monolayer culture of a human colon carcinoma; MEL-28 (ATCC HTB-72), monolayer culture of a human melanoma and DU-145 (ATCC HTB-81), monolayer culture of a human prostate carcinoma.
(§3) Cells were maintained, in logarithmic phase of growth in Eagle's Minimum Essential Medium, with Earle's Balanced Salts, with non-essential amino acids, with 2.0 mM L-Glutamine, without sodium bicarbonate (EMEM/neaa), supplemented with 10% Fetal Calf Serum (FCS), 10^−2 M. sodium bicarbonate and 0.1 U/l penicillin G+0.1 g/l streptomycin sulfate. For the experiments, cells are harvested from subconfluent cultures using trypsin and resuspended in fresh medium before plating.
(§4) A-549, HT-29, MEL-28 and DU-145 cells were seeded into 16 mm diameter wells at 1×10^4 cells per well in 1 ml aliquots of EMEM 5% FCS containing different concentrations of the sample to be tested. A separate set of cultures without drug was seeded as control of growth, to ensure that cells remained in exponential phase of growth. All determinations are carrying out in duplicate. After three days of incubation at 37° C., 5% CO2 in a 98% humid atmosphere cells were stained with 0.1% crystal violet. An approximately IC50 was determined by comparing the growth in wells with drug to the growth in wells control.
(§5) For quantifying the activity, after the incubation time, cells are trypsinized and counted in a Coulter Counter ZM. All counts (net cells per well), represent the average of duplicate wells. % G, percent of growth relative to cultures without drug. The results of these assays are used to generate dose-response curves from which more precise IC50 values are determined (sample concentration which produces 50% cell growth inhibition).
(§6) Obtained results may predict the usefulness of a certain drug as a potential cancer treatment. For this technique, compounds which show IC50 values smaller than 1 μg/ml are selected to continue with further studies. IC50's data allow to predict that not only could a drug be cystostatic, but also it could have a potential in terms of tumor reduction.

A-549 = assay: Inhibition of cell growth by counting cells, A-549; assay type: cell-based, human; conditions: three days of incubation, read-out: IC50 (molar) A-549
Procedure: as §1, §2, §3, §4, §5, §6

SMILES	IC50 (HT-29; Homo sapiens, HT-29, 72 h)	IC50 (A-549; Homo sapiens, A549, 72 h)	IC50 (HT-29)	IC50 (A-549)
COc1cc2c(cc1OC(=O)OCc1ccccc1)CCN[C@]21CS[C@@H]2c3c(OC(C)=O)c(C)c4c(c3[C@H](COC1=O)N1C2[C@H]2c3c(cc(C)c(OC)c3OC(=O)OCc3ccccc3)C[C@@H]([C@@H]1O)N2C)OCO4 (some centres unmarked) [Compound 85]	9.71 nM	9.71 nM	–	–
COc1cc2c(cc1OC(=O)OC(C)(C)C)CCN[C@]21CS[C@@H]2c3c(OC(=O)OC(C)(C)C)c(C)c4c(c3[C@H](COC1=O)N1C2[C@H]2c3c(cc(C)c(OC)c3O)C[C@@H]([C@@H]1C#N)N2C)OCO4 (some centres unmarked) [Compound 108]	0.108 nM	0.108 nM	–	–
COc1cc2c(cc1OC(=O)OC(C)(C)C)CCN[C@]21CS[C@@H]2c3c(OC(=O)C(F)(F)F)c(C)c4c(c3[C@H](COC1=O)N1C2[C@H]2c3c(cc(C)c(OC)c3OC(=O)C(F)(F)F)C[C@@H]([C@@H]1C#N)N2C)OCO4 (some centres unmarked) [Compound 109]	0.98 nM	0.98 nM	–	–
COc1cc2c(cc1OC(=O)OC(C)(C)C)CCN[C@]21CS[C@@H]2c3c(OC(=O)OC(C)(C)C)c(C)c4c(c3[C@H](COC1=O)N1C2[C@H]2c3c(cc(C)c(OC)c3OC(=O)OC(C)(C)C)C[C@@H]([C@@H]1C#N)N2C)OCO4 (some centres unmarked) [Compound 110]	0.0972 nM	0.0972 nM	–	–
CCCC(=O)Oc1c(C)c2c(c3c1[C@H]1SC[C@]4(NCCc5cc(OC(=O)OC(C)(C)C)c(OC)cc54)C(=O)OC[C@@H]3N3C1[C@H]1c4c(cc(C)c(OC)c4OC(=O)CCC)C[C@@H]([C@@H]3C#N)N1C)OCO2 (some centres unmarked) [Compound 112]	10.3 nM	10.3 nM	–	–
COc1cc2c(cc1OC(=O)OC(C)(C)C)CCN[C@]21CS[C@@H]2c3c(OC(=O)/C=C/c4ccccc4)c(C)c4c(c3[C@H](COC1=O)N1C2[C@H]2c3c(cc(C)c(OC)c3OC(=O)/C=C/c3ccccc3)C[C@@H]([C@@H]1C#N)N2C)OCO4 (some centres unmarked) [Compound 114]	9.18 nM	9.18 nM	–	–
C=CCOC(=O)Oc1c(C)c2c(c3c1[C@H]1SC[C@]4(NCCc5cc(OC(=O)OC(C)(C)C)c(OC)cc54)C(=O)OC[C@@H]3N3C1[C@H]1c4c(cc(C)c(OC)c4O)C[C@@H]([C@@H]3C#N)N1C)OCO2 (some centres unmarked) [Compound 115]	0.11 nM	0.11 nM	–	–
COc1cc2c(cc1OC(=O)OC(C)(C)C)CCN[C@]21CS[C@@H]2c3c(OC(=O)CCCl)c(C)c4c(c3[C@H](COC1=O)N1C2[C@H]2c3c(cc(C)c(OC)c3O)C[C@@H]([C@@H]1C#N)N2C)OCO4 (some centres unmarked) [Compound 116]	0.109 nM	0.109 nM	–	–
COc1cc2c(cc1OC(=O)OC(C)(C)C)CCN[C@]21CS[C@@H]2c3c(OC)c(C)c4c(c3[C@H](COC1=O)N1C2[C@H]2c3c(cc(C)c(OC)c3O)C[C@@H]([C@@H]1C#N)N2C)OCO4 (some centres unmarked) [Compound 126]	–	–	0.119 nM	0.119 nM
COc1cc2c(cc1OC(=O)OC(C)(C)C)CCN[C@]21CS[C@@H]2c3c(OC)c(C)c4c(c3[C@H](COC1=O)N1C2[C@H]2c3c(cc(C)c(OC)c3OC)C[C@@H]([C@@H]1C#N)N2C)OCO4 (some centres unmarked) [Compound 127]	–	–	0.117 nM	0.117 nM
CCOc1c(C)c2c(c3c1[C@H]1SC[C@]4(NCCc5cc(OC(=O)OC(C)(C)C)c(OC)cc54)C(=O)OC[C@@H]3N3C1[C@H]1c4c(cc(C)c(OC)c4O)C[C@@H]([C@@H]3C#N)N1C)OCO2 (some centres unmarked) [Compound 128]	1.17 nM	1.17 nM	–	–
CCOc1c(C)c2c(c3c1[C@H]1SC[C@]4(NCCc5cc(OC(=O)OC(C)(C)C)c(OC)cc54)C(=O)OC[C@@H]3N3C1[C@H]1c4c(cc(C)c(OC)c4OCC)C[C@@H]([C@@H]3C#N)N1C)OCO2 (some centres unmarked) [Compound 129]	11.3 nM	11.3 nM	–	–
CCCOc1c(C)c2c(c3c1[C@H]1SC[C@]4(NCCc5cc(OC(=O)OC(C)(C)C)c(OC)cc54)C(=O)OC[C@@H]3N3C1[C@H]1c4c(cc(C)c(OC)c4O)C[C@@H]([C@@H]3C#N)N1C)OCO2 (some centres unmarked) [Compound 130]	1.15 nM	1.15 nM	–	–
CCCOc1c(C)c2c(c3c1[C@H]1SC[C@]4(NCCc5cc(OC(=O)OC(C)(C)C)c(OC)cc54)C(=O)OC[C@@H]3N3C1[C@H]1c4c(cc(C)c(OC)c4OCCC)C[C@@H]([C@@H]3C#N)N1C)OCO2 (some centres unmarked) [Compound 131]	110 nM	110 nM	–	–
C=CCOc1c(C)c2c(c3c1[C@H]1SC[C@]4(NCCc5cc(OC(=O)OC(C)(C)C)c(OC)cc54)C(=O)OC[C@@H]3N3C1[C@H]1c4c(cc(C)c(OC)c4O)C[C@@H]([C@@H]3C#N)N1C)OCO2 (some centres unmarked) [Compound 132]	1.15 nM	1.15 nM	–	–
C=CCOc1c(C)c2c(c3c1[C@H]1SC[C@]4(NCCc5cc(OC(=O)OC(C)(C)C)c(OC)cc54)C(=O)OC[C@@H]3N3C1[C@H]1c4c(cc(C)c(OC)c4OCC=C)C[C@@H]([C@@H]3C#N)N1C)OCO2 (some centres unmarked) [Compound 133]	110 nM	110 nM	–	–
COc1cc2c(cc1O)CCN[C@]21CS[C@@H]2c3c(OC(=O)/C=C/c4ccccc4)c(C)c4c(c3[C@H](COC1=O)N1C2[C@H]2c3c(cc(C)c(OC)c3OC(=O)/C=C/c3ccccc3)C[C@@H]([C@@H]1C#N)N2C)OCO4 (some centres unmarked) [Compound 138]	1.01 nM	1.01 nM	–	–
CCCC(=O)Oc1c(C)c2c(c3c1[C@H]1SC[C@]4(NCCc5cc(O)c(OC)cc54)C(=O)OC[C@@H]3N3C1[C@H]1c4c(cc(C)c(OC)c4O)C[C@@H]([C@@H]3C#N)N1C)OCO2 (some centres unmarked) [Compound 139]	1.25 nM	1.25 nM	–	–
CCCC(=O)Oc1c(C)c2c(c3c1[C@H]1SC[C@]4(NCCc5cc(O)c(OC)cc54)C(=O)OC[C@@H]3N3C1[C@H]1c4c(cc(C)c(OC)c4OC(=O)CCC)C[C@@H]([C@@H]3C#N)N1C)OCO2 (some centres unmarked) [Compound 140]	1.15 nM	1.15 nM	–	–
C=CCOC(=O)Oc1c(C)c2c(c3c1[C@H]1SC[C@]4(NCCc5cc(O)c(OC)cc54)C(=O)OC[C@@H]3N3C1[C@H]1c4c(cc(C)c(OC)c4O)C[C@@H]([C@@H]3C#N)N1C)OCO2 (some centres unmarked) [Compound 141]	–	–	0.123 nM	0.123 nM
COc1cc2c(cc1O)CCN[C@]21CS[C@@H]2c3c(OC(=O)CCCl)c(C)c4c(c3[C@H](COC1=O)N1C2[C@H]2c3c(cc(C)c(OC)c3O)C[C@@H]([C@@H]1C#N)N2C)OCO4 (some centres unmarked) [Compound 142]	1.22 nM	1.22 nM	–	–
CCCCCCCC(=O)Oc1c(C)c2c(c3c1[C@H]1SC[C@]4(NCCc5cc(O)c(OC)cc54)C(=O)OC[C@@H]3N3C1[C@H]1c4c(cc(C)c(OC)c4OC(=O)CCCCCCC)C[C@@H]([C@@H]3C#N)N1C)OCO2 (some centres unmarked) [Compound 145]	102 nM	102 nM	–	–
COc1cc2c(cc1O)CCN[C@]21CS[C@@H]2c3c(OC)c(C)c4c(c3[C@H](COC1=O)N1C2[C@H]2c3c(cc(C)c(OC)c3O)C[C@@H]([C@@H]1C#N)N2C)OCO4 (some centres unmarked) [Compound 149]	0.135 nM	0.135 nM	–	–
COc1cc2c(cc1O)CCN[C@]21CS[C@@H]2c3c(OC)c(C)c4c(c3[C@H](COC1=O)N1C2[C@H]2c3c(cc(C)c(OC)c3OC)C[C@@H]([C@@H]1C#N)N2C)OCO4 (some centres unmarked) [Compound 150]	1.32 nM	1.32 nM	–	–
CCOc1c(C)c2c(c3c1[C@H]1SC[C@]4(NCCc5cc(O)c(OC)cc54)C(=O)OC[C@@H]3N3C1[C@H]1c4c(cc(C)c(OC)c4O)C[C@@H]([C@@H]3C#N)N1C)OCO2 (some centres unmarked) [Compound 151]	0.132 nM	0.132 nM	–	–
CCOc1c(C)c2c(c3c1[C@H]1SC[C@]4(NCCc5cc(O)c(OC)cc54)C(=O)OC[C@@H]3N3C1[C@H]1c4c(cc(C)c(OC)c4OCC)C[C@@H]([C@@H]3C#N)N1C)OCO2 (some centres unmarked) [Compound 152]	12.8 nM	12.8 nM	–	–
CCCOc1c(C)c2c(c3c1[C@H]1SC[C@]4(NCCc5cc(O)c(OC)cc54)C(=O)OC[C@@H]3N3C1[C@H]1c4c(cc(C)c(OC)c4O)C[C@@H]([C@@H]3C#N)N1C)OCO2 (some centres unmarked) [Compound 153]	–	–	0.13 nM	0.13 nM
C=CCOc1c(C)c2c(c3c1[C@H]1SC[C@]4(NCCc5cc(O)c(OC)cc54)C(=O)OC[C@@H]3N3C1[C@H]1c4c(cc(C)c(OC)c4O)C[C@@H]([C@@H]3C#N)N1C)OCO2 (some centres unmarked) [Compound 155]	1.3 nM	1.3 nM	–	–
